The test system of one assay is pRb negative cells. Kind of assay: cell proliferation of pRb negative cells. The assay is classed as cell-based. To be noted: high concentrations. From the text:
(§1) Moreover, the inhibitory effects of the CDK4 inhibitor are absolutely dependent upon the presence of the Retinoblastoma protein (pRb). Activities in pRb negative cells for candidate CDK4 inhibitors indicate that the compounds have off-target activities and not as selective.

The next assay has as its system cell cycle. The experiment in a line: cell cycle analysis. The note with it: concentrations of 1 and 10 uM. Format: cell-based.
Excerpt: as §1

As for `CN(C)C(=O)c1cc2cnc(Nc3ccc(N4CCNCC4)cc3)nc2n1C1CCCC1` [Example 200], the “inhibition of cell proliferation of pRb negative cells” value in the assay on pRb negative cells was “does inhibit the cell proliferation of pRb negative cells at high concentrations”. In addition, the “cell cycle arrest phase” value in the assay with cell cycle is given as “starts to induce G2/M phase blocks”.

(Values after patent US9416136B2, “Pyrrolopyrimidine compounds and their uses” (Novartis AG, priority 2008, dated 2016).)
